In US4925861A, “Carboxystyrene derivatives and drugs containing them as effective ingredients” (Mitsubishi Kasei Corporation, priority 1987, dated 1990):

System: Phospholipase A2 from Naja mocambique
Assay: in vitro phospholipase inhibiting activity (DPybPC fluorescence)
Type: biochemical
Conditions: compound 10^-5 M, substrate DPybPC 2 μM, pH 8.0, 25° C.

SMILES | Phospholipase A2 Inhibition (%)
O=C(Nc1ccccc1C(=O)O)c1cccc(C=Cc2nc3ccccc3s2)c1 [Compound 13] | 73
CCC(CC)(CNC(=O)c1cccc(C=Cc2nc3ccccc3s2)c1)C(=O)O [Compound 20] | 47
